Assay results as given in patent publication US20220315578A1, “BRD9 BIFUNCTIONAL DEGRADERS AND THEIR METHODS OF USE” (NOVARTIS AG, priority 2019, published 2022).

Target: T1, BRD9-GFP (Homo sapiens, UniProt Q9H8M2)
T1 construct: CHYSEL (2A cis-acting hydrolase element) remnant after GFP; mCherry is split off as a separate protein (C); expressed in transfected cells; host or cells: HEK293A cells (Invitrogen R70507), lentiviral transduction with pLenti6-BRD9-GFP-CHYSEL-mCherry, blasticidin selection
T1 sequence (Q9H8M2 1-597): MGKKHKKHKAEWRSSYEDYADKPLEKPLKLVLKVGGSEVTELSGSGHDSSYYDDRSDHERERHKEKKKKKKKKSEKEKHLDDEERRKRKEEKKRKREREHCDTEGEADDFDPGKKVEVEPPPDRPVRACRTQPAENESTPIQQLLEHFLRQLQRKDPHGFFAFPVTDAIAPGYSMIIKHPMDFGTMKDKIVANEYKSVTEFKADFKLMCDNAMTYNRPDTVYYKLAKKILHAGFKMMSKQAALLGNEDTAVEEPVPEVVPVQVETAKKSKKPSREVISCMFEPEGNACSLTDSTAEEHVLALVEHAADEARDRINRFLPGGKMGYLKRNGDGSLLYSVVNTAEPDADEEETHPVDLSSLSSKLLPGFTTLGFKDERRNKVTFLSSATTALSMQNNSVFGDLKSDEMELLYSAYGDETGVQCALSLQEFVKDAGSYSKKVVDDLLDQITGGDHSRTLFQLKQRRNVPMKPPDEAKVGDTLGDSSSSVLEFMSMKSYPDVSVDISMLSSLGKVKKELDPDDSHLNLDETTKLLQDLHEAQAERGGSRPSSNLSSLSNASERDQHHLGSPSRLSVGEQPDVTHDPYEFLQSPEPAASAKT
Assay: BRD9-GFP protein abundance flow cytometry assay in HEK293A cells
Format: cell-based
Conditions: HEK293A-BRD9-GFP-CHYSEL-mCherry cells; for BRD9 Deg Amax %: 24 h, % protein remaining at the concentration at which maximum degradation is seen; for DC50: 24 h at 37° C., 10-point 1:3 dilution, concentration at which 50% maximal degradation was observed
Procedure, shortened: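 HEK293A cells stably express bicistronic BRD9-GFP-CHYSEL-mCherry and received 24 h treatment at 37° C with a 10-point, 3-fold dilution series from […], in 0.1% DMSO and duplicate. Median GFP/mCherry ratio of 5,000 single cells by flow cytometry, normalized to mCherry-only cells (0%) and DMSO (100%), gave DC50 and Amax (% protein remaining).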

Structure (SMILES) | BRD9 Deg Amax % [%] | DC50 [nM]
Cn1cc(-c2ccc(CN3CCC(OC4CCN(CCn5cccc(CN6CCC(=O)NC6=O)c5=O)CC4)CC3)cc2)c2ccncc2c1=O [Compound E37, 1-((1-(2-(4-((1-(4-(2-methyl-1-oxo-1,2-dihydro-2,7-naphthyridin-4-yl)benzyl)piperidin-4-yl)oxy)piperidin-1-yl)ethyl)-2-oxo-1,2-dihydropyridin-3-yl)methyl)dihydropyrimidine-2,4(1H,3H)-dione] | 13.77 | 9
COc1cc(-c2cn(C)c(=O)c3cnccc23)c(OC)cc1CN1CC[C@@H](OC2CCN(CCn3cccc(CN4CCC(=O)NC4=O)c3=O)CC2)[C@H](F)C1 [Compound E39, 1-((1-(2-(4-(((3R,4R)-1-(2,5-Dimethoxy-4-(2-methyl-1-oxo-1,2-dihydro-2,7-naphthyridin-4-yl)benzyl)-3-fluoropiperidin-4-yl)oxy)piperidin-1-yl)ethyl)-2-oxo-1,2-dihydropyridin-3-yl)methyl)dihydropyrimidine-2,4(1H,3H)-dione] | 14.60 | 4
CCCCCCn1cc(-c2cc(OC)c(CN3CCC(OC4CCN(C(=O)c5ccc(OC)c(N6CCC(=O)NC6=O)c5)CC4)CC3)c(OC)c2)c2ccncc2c1=O [Compound E40, 1-(5-(4-((1-(4-(2-Hexyl-1-oxo-1,2-dihydro-2,7-naphthyridin-4-yl)-2,6-dimethoxybenzyl)piperidin-4-yl)oxy)piperidine-1-carbonyl)-2-methoxyphenyl)dihydropyrimidine-2,4(1H,3H)-dione] | 10.51 | 29
CCCCn1cc(-c2ccc(OC3CCN(CC4CCN(C(=O)c5ccc(OC)c(N6CCC(=O)NC6=O)c5)CC4)CC3)cc2)c2ccncc2c1=O [Compound E42, 1-(5-(4-((4-(4-(2-butyl-1-oxo-1,2-dihydro-2,7-naphthyridin-4-yl)phenoxy)piperidin-1-yl)methyl)piperidine-1-carbonyl)-2-methoxyphenyl)dihydropyrimidine-2,4(1H,3H)-dione] | 17.34 | 4
CCCCn1cc(-c2ccc(OC3CCN(CC4CCN(C(=O)c5ccc(OC)c(N6CCC(=O)NC6=O)c5)CC4)CC3)c(Cl)c2)c2ccncc2c1=O [Compound E43, 1-(5-(4-((4-(4-(2-butyl-1-oxo-1,2-dihydro-2,7-naphthyridin-4-yl)-2-chlorophenoxy)piperidin-1-yl)methyl)piperidine-1-carbonyl)-2-methoxyphenyl)dihydropyrimidine-2,4(1H,3H)-dione] | 17.45 | 3
CCCCn1cc(-c2cc(F)c(CN3CCC(OC4CCN(C(=O)COc5ccc(C)c(N6CCC(=O)NC6=O)c5)CC4)CC3)c(F)c2)c2ccncc2c1=O [Compound E45, 1-(5-(2-(4-((1-(4-(2-butyl-1-oxo-1,2-dihydro-2,7-naphthyridin-4-yl)-2,6-difluorobenzyl)piperidin-4-yl)oxy)piperidin-1-yl)-2-oxoethoxy)-2-methylphenyl)dihydropyrimidine-2,4(1H,3H)-dione] | 15.28 | 7
COc1cc(-c2cn(C)c(=O)c3cnccc23)c(OC)cc1CN1CCC(OC2CCN(C(=O)COc3ccc(N4CCC(=O)NC4=O)cc3)CC2)CC1 [Compound E46, 1-(4-(2-(4-((1-(2,5-dimethoxy-4-(2-methyl-1-oxo-1,2-dihydro-2,7-naphthyridin-4-yl)benzyl)piperidin-4-yl)oxy)piperidin-1-yl)-2-oxoethoxy)phenyl)dihydropyrimidine-2,4(1H,3H)-dione] | 15.69 | 33
CCCCn1cc(-c2cc(OC)c(CCN3CC[C@@H](OC4CCN(C(=O)c5ccc(Cl)c(N6CCC(=O)NC6=O)c5)CC4)[C@H](F)C3)cc2OC)c2ccncc2c1=O [Compound E47, 1-(5-(4-(((3R,4R)-1-(4-(2-butyl-1-oxo-1,2-dihydro-2,7-naphthyridin-4-yl)-2,5-dimethoxyphenethyl)-3-fluoropiperidin-4-yl)oxy)piperidine-1-carbonyl)-2-chlorophenyl)dihydro-pyrimidine-2,4(1H,3H)-dione] | 32.89 | 49
CCCn1cc(-c2cc(OC)c(CCN3CCN(CC4CCN(C(=O)c5ccc(Cl)c(N6CCC(=O)NC6=O)c5)CC4)CC3)c(OC)c2)c(C)c(C)c1=O [Compound E48, 1-(2-chloro-5-(4-((4-(4-(4,5-dimethyl-6-oxo-1-propyl-1,6-dihydropyridin-3-yl)-2,6-dimethoxyphenethyl)piperazin-1-yl)methyl)piperidine-1-carbonyl)phenyl)dihydropyrimidine-2,4(1H,3H)-dione] | 15.41 | 2
CCCCn1cc(-c2cc(F)c(OC3CCN(CC4CCN(C(=O)c5ccc(OC)c(N6CCC(=O)NC6=O)c5)CC4)CC3)c(F)c2)c2ccncc2c1=O [Compound E49, 1-(5-(4-((4-(4-(2-butyl-1-oxo-1,2-dihydro-2,7-naphthyridin-4-yl)-2,6-difluorophenoxy)piperidin-1-yl)methyl)piperidine-1-carbonyl)-2-methoxyphenyl)dihydropyrimidine-2,4(1H,3H)-dione] | 19.41 | 7
CCCCn1cc(-c2cc(OC)c(CCN3CCC(OC4CCN(C(=O)c5ccc(OC)c(N6CCC(=O)NC6=O)c5)CC4)CC3)c(OC)c2)c2ccncc2c1=O [Compound E50, 1-(5-(4-((1-(4-(2-butyl-1-oxo-1,2-dihydro-2,7-naphthyridin-4-yl)-2,6-dimethoxyphenethyl)-piperidin-4-yl)oxy)piperidine-1-carbonyl)-2-meth-oxyphenyl)dihydro-pyrimidine-2,4(1H,3H)-dione] | 13.47 | 8
CCCCn1cc(-c2cc(F)c(CN3CCC(OC4CCN(C(=O)c5ccc(OC)c(N6CCC(=O)NC6=O)c5)CC4)CC3)c(OC)c2)c2ccncc2c1=O [Compound E51, 1-(5-(4-((1-(4-(2-butyl-1-oxo-1,2-dihydro-2,7-naphthyridin-4-yl)-2-fluoro-6-methoxybenzyl)-piperidin-4-yl)oxy)piperidine-1-carbonyl)-2-meth-oxyphenyl)dihydro-pyrimidine-2,4(1H,3H)-dione] | 11.66 | 7
CCCn1cc(-c2cc(F)c(CCN3CCC(OC4CCN(C(=O)c5ccc(Cl)c(N6CCC(=O)NC6=O)c5)CC4)CC3)c(OC)c2)c(C)c(C)c1=O [Compound E52, 1-(2-Chloro-5-(4-((1-(4-(4,5-dimethyl-6-oxo-1-propyl-1,6-dihydropyridin-3-yl)-2-fluoro-6-methoxyphenethyl)piperidin-4-yl)oxy)piperidine-1-carbonyl)phenyl)dihydropyrimidine-2,4(1H,3H)-dione] | 14.99 | 4
CCCCn1cc(-c2cc(F)c(CCN3CCC(OC4CCN(C(=O)c5ccc(Cl)c(N6CCC(=O)NC6=O)c5)CC4)CC3)c(OC)c2)c2ccncc2c1=O [Compound E53, 1-(5-(4-((1-(4-(2-butyl-1-oxo-1,2-dihydro-2,7-naphthyridin-4-yl)-2-fluoro-6-methoxyphenethyl)-piperidin-4-yl)oxy)piperidine-1-carbonyl)-2-chlorophenyl)dihydro-pyrimidine-2,4(1H,3H)-dione] | 16.11 | 4
CCCCn1cc(-c2ccc(CN3CCC(OC4CCN(C(=O)c5ccc(OC)c(N6CCC(=O)NC6=O)c5)CC4)CC3)c(F)c2)c2ccncc2c1=O [Compound E54, 1-(5-(4-((1-(4-(2-butyl-1-oxo-1,2-dihydro-2,7-naphthyridin-4-yl)-2-fluorobenzyl)piperidin-4-yl)oxy)piperidine-1-carbonyl)-2-methoxyphenyl)dihydropyrimidine-2,4(1H,3H)-dione] | 18.33 | 4
CCCn1cc(-c2cc(OC)c(CCN3CC[C@@H](OC4CCN(C(=O)c5ccc(Cl)c(N6CCC(=O)NC6=O)c5)CC4)[C@H](F)C3)c(OC)c2)c(C)c(C)c1=O [Compound E55, 1-(2-chloro-5-(4-(((3R,4R)-1-(4-(4,5-dimethyl-6-oxo-1-propyl-1,6-dihydropyridin-3-yl)-2,6-dimethoxyphenethyl)-3-fluoropiperidin-4-yl)oxy)piperidine-1-carbonyl)phenyl)dihydropyrimidine-2,4(1H,3H)-dione] | 18.12 | 5
CCCCn1cc(-c2cc(F)c(O[C@@H]3CCN(CC4CCN(C(=O)c5ccc(OC)c(N6CCC(=O)NC6=O)c5)CC4)C[C@H]3F)c(F)c2)c2ccncc2c1=O [Compound E56, 1-(5-(4-(((3R,4R)-4-(4-(2-butyl-1-oxo-1,2-dihydro-2,7-naphthyridin-4-yl)-2,6-difluorophenoxy)-3-fluoropiperidin-1-yl)methyl)piperidine-1-carbonyl)-2-methoxyphenyl)dihydropyrimidine-2,4(1H,3H)-dione] | 19.65 | 1
